Experimental findings from PubChem BioAssay (NCI) are described below.

Several values for one entry are separate records, joined by “and”; a condition that tells them apart may be missing. Equal values may be shown once.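 Each compound was tested at five concentrations against cells in 96-well plates for 48 hours. GI50 is the concentration that inhibits growth by half. The concentration for full growth arrest is given as TGI.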 Bounds are passed on as bounds.

Among the test systems are RXF 393 renal; OVCAR-8 ovarian; COLO 205 colon; U251 CNS; EKVX NSCLC; HCC-2998 colon; UACC-257 melanoma; CAKI-1 renal; RPMI-8226 leukemia; IGROV1 ovarian.
Assay in all cases: DTP human tumour cell line panel, 48 h

Regarding `O=C1CC[C@H](N2Cc3c(OCc4ccc(CN5CCOCC5)cc4)cccc3C2=O)C(=O)N1`, the GI50 in the test on RXF 393 renal, with OVCAR-8 ovarian, with COLO 205 colon, with U251 CNS, in the test on EKVX NSCLC and in the test on HCC-2998 colon was greater than 100 µM in each case. The GI50 with UACC-257 melanoma, in the test with CAKI-1 renal, in the test with RPMI-8226 leukemia and with IGROV1 ovarian was greater than 100 µM each time. Moreover, the TGI in the test on RXF 393 renal, in the test with OVCAR-8 ovarian, with COLO 205 colon, in the test with U251 CNS, in the test with EKVX NSCLC and in the test on HCC-2998 colon was greater than 100 µM throughout. For the same molecule, the TGI in the test on UACC-257 melanoma, in the test with CAKI-1 renal, in the test on RPMI-8226 leukemia and with IGROV1 ovarian was greater than 100 µM throughout.

For `CCOC(=O)C(=O)Nc1cc(Cl)c(Cl)cc1Cl`, the concentration for total growth inhibition (TGI) in the test with RXF 393 renal, with OVCAR-8 ovarian, with COLO 205 colon, in the test on U251 CNS, with EKVX NSCLC and in the test on HCC-2998 colon was greater than 100 µM in each case. Further, the TGI with UACC-257 melanoma, with CAKI-1 renal, with RPMI-8226 leukemia and in the test with IGROV1 ovarian was greater than 100 µM throughout.

With `O=C(O)[C@@H]1OCCOCCO[C@@H](C(=O)O)[C@H](C(=O)O)OCCOCCO[C@H]1C(=O)O`, the total growth inhibition concentration (TGI) was greater than 24.9 µM in the test with RXF 393 renal; greater than 100 µM in the test on OVCAR-8 ovarian; greater than 100 µM with COLO 205 colon; greater than 86.9 µM in the test on U251 CNS; greater than 100 µM in the test on EKVX NSCLC; greater than 100 µM in the test with HCC-2998 colon. In addition, the concentration for total growth inhibition (TGI) in the test with UACC-257 melanoma is greater than 100 µM; with CAKI-1 renal, greater than 100 µM; in the test on RPMI-8226 leukemia, greater than 60.9 µM; in the test on IGROV1 ovarian, greater than 100 µM.

For the molecule `N#COc1ccc(Oc2ccccc2)cc1`, the TGI in the test with RXF 393 renal, in the test on OVCAR-8 ovarian, in the test with COLO 205 colon, in the test on U251 CNS, with EKVX NSCLC and in the test on HCC-2998 colon was greater than 100 µM each time. Further, the TGI with UACC-257 melanoma was greater than 100 µM; in the test on CAKI-1 renal, greater than 100 µM; with RPMI-8226 leukemia, 83.5 µM; in the test on IGROV1 ovarian, greater than 100 µM.

With `C/C(=N\NC(N)=S)c1ccc(C)c(C)c1`, the total growth inhibition concentration (TGI) in the test with RXF 393 renal was 86.4 µM; in the test on OVCAR-8 ovarian, greater than 100 µM; in the test with COLO 205 colon, greater than 100 µM; in the test on U251 CNS, greater than 100 µM; in the test on EKVX NSCLC, greater than 100 µM; with HCC-2998 colon it was greater than 100 µM. The concentration for total growth inhibition (TGI) in the test with UACC-257 melanoma, in the test on CAKI-1 renal, in the test on RPMI-8226 leukemia and in the test on IGROV1 ovarian was greater than 100 µM throughout.

As to `CC1=C(/C=C/C(=O)CC(=O)/C=C/C2=C(C)CCCC2(C)C)C(C)(C)CCC1`, the GI50 is 4.38 µM with RXF 393 renal; 30.3 µM in the test with OVCAR-8 ovarian; 35.9 µM in the test on COLO 205 colon; 29.2 µM in the test on U251 CNS; 15.5 µM in the test with EKVX NSCLC; 35.4 µM in the test with HCC-2998 colon. In addition, the GI50 is 20.6 µM in the test with UACC-257 melanoma, 19.1 µM in the test with CAKI-1 renal, 14.9 µM with RPMI-8226 leukemia and 21 µM in the test on IGROV1 ovarian. Besides, the total growth inhibition concentration (TGI) is 16 µM with RXF 393 renal; greater than 100 µM with OVCAR-8 ovarian; greater than 100 µM in the test on COLO 205 colon; greater than 100 µM in the test with U251 CNS; 52.8 µM in the test with EKVX NSCLC; greater than 100 µM in the test on HCC-2998 colon. In addition, the concentration for total growth inhibition (TGI) with UACC-257 melanoma is 63.5 µM; in the test with CAKI-1 renal it was greater than 100 µM; in the test on RPMI-8226 leukemia it was 40.8 µM; with IGROV1 ovarian, 88.5 µM.

For `O=C(NCCc1ccccc1)Nc1ccc2cc3ccc(NC(=O)NCCc4ccccc4)cc3nc2c1`, the GI50 in the test on RXF 393 renal was 1.32 µM; in the test on OVCAR-8 ovarian, 0.807 µM; in the test with COLO 205 colon, 0.318 µM; in the test with U251 CNS it was 0.746 µM; in the test with EKVX NSCLC, 3.49 µM; with HCC-2998 colon it was 0.447 µM. The GI50 with UACC-257 melanoma is 1.86 µM; in the test on CAKI-1 renal, 4.65 µM; with RPMI-8226 leukemia it was 2.24 µM; with IGROV1 ovarian, 1.44 µM. The concentration for total growth inhibition (TGI) in the test on RXF 393 renal stood at 6.49 µM; in the test on OVCAR-8 ovarian, 2.7 µM; with COLO 205 colon, 1.19 µM; with U251 CNS it was 2.16 µM; with EKVX NSCLC, 21.8 µM; in the test with HCC-2998 colon, 1.68 µM. Moreover, the total growth inhibition concentration (TGI) in the test with UACC-257 melanoma was 4.07 µM; with CAKI-1 renal it was greater than 100 µM; in the test with RPMI-8226 leukemia, 6.72 µM; in the test with IGROV1 ovarian, 3.97 µM.

In the case of `CN1CCN(c2ccc(OC(F)(F)F)c(Nc3ncc4c(n3)-c3c(c(C(N)=O)nn3CCO)CC4)c2)CC1`, the GI50 was 0.398 µM and 0.102 µM with RXF 393 renal; 0.0506 µM and 0.0624 µM in the test on OVCAR-8 ovarian; 0.0255 µM and 0.0275 µM in the test with COLO 205 colon; 0.052 µM and 0.0628 µM in the test with U251 CNS; 0.0907 µM and 0.169 µM in the test on EKVX NSCLC; 0.0487 µM and 0.174 µM in the test with HCC-2998 colon. Also, the GI50 is 0.584 µM and 0.831 µM in the test on CAKI-1 renal; 0.774 µM and 0.324 µM in the test with RPMI-8226 leukemia. Also, the TGI was 21 µM and > 10 µM in the test on RXF 393 renal; 61.5 µM and > 4.59 µM in the test on OVCAR-8 ovarian; 21.7 µM and > 10 µM in the test on U251 CNS; greater than 88.2 µM in the test with EKVX NSCLC; 18.7 µM and > 4.38 µM with HCC-2998 colon; 28.6 µM and > 6.61 µM with UACC-257 melanoma. The TGI is greater than 44.8 µM in the test on CAKI-1 renal; 35 µM and > 10 µM in the test with RPMI-8226 leukemia; 46.6 µM and > 10 µM with IGROV1 ovarian.

Turning to `C/C=C/C/C=C/[C@H](C)C[C@H](O)[C@@H]1C[C@@H]2O[C@H]2/C=C/[C@@H]2OC(C)(C)O[C@H]2/C=C/C[C@H](C)CC(=O)O1`, the GI50 with RXF 393 renal was 30.4 µM; with OVCAR-8 ovarian it was 3.7 µM; in the test on COLO 205 colon, 8.02 µM; in the test with U251 CNS, 13.5 µM; in the test on EKVX NSCLC, 21 µM; in the test with HCC-2998 colon it was greater than 100 µM. Moreover, the GI50 with UACC-257 melanoma is 56.7 µM; with CAKI-1 renal, 2.9 µM; in the test on RPMI-8226 leukemia it was 3.16 µM; in the test on IGROV1 ovarian, 10.5 µM. The total growth inhibition concentration (TGI) with RXF 393 renal, with OVCAR-8 ovarian, with COLO 205 colon, in the test on U251 CNS, in the test on EKVX NSCLC and in the test with HCC-2998 colon was greater than 100 µM in each case. The TGI was greater than 100 µM with UACC-257 melanoma, 31.1 µM with CAKI-1 renal, 37 µM in the test with RPMI-8226 leukemia and greater than 100 µM with IGROV1 ovarian.

`Nc1c(C(=O)Nc2ccccn2)sc2nc3c(cc12)C(O)CCC3` (configuration not stated): the GI50 was 1.69 µM with RXF 393 renal; 2.19 µM in the test with OVCAR-8 ovarian; 2.51 µM with COLO 205 colon; 1.87 µM with U251 CNS; 3.29 µM in the test with EKVX NSCLC; 1.85 µM in the test on HCC-2998 colon. In addition, the GI50 with UACC-257 melanoma is greater than 50 µM; in the test on CAKI-1 renal, 2.92 µM; in the test with RPMI-8226 leukemia it was 1.84 µM; with IGROV1 ovarian it was 3.27 µM. The total growth inhibition concentration (TGI) with RXF 393 renal, in the test with OVCAR-8 ovarian, with COLO 205 colon, in the test on U251 CNS, in the test on EKVX NSCLC and in the test on HCC-2998 colon was greater than 50 µM each time. Besides, the concentration for total growth inhibition (TGI) in the test with UACC-257 melanoma, in the test with CAKI-1 renal, with RPMI-8226 leukemia and in the test on IGROV1 ovarian was greater than 50 µM throughout.

For `COc1cccc(-c2nn(-c3ccccc3)cc2-c2ccnc(NCCCNC(=O)c3cccc(C(F)(F)F)c3)c2)c1`, the GI50 with RXF 393 renal is 2.2 µM; in the test with OVCAR-8 ovarian, 4.67 µM; in the test on COLO 205 colon, 3.33 µM; with U251 CNS it was 4.37 µM; in the test with EKVX NSCLC, 5.01 µM; in the test on HCC-2998 colon, 3.96 µM. The GI50 in the test with UACC-257 melanoma is 4.4 µM; with CAKI-1 renal, 6.27 µM; in the test with RPMI-8226 leukemia, 2.64 µM; with IGROV1 ovarian it was 7.59 µM. Besides, the concentration for total growth inhibition (TGI) in the test with RXF 393 renal amounted to 7.52 µM; with OVCAR-8 ovarian, 20.1 µM; in the test on COLO 205 colon, 12.4 µM; in the test on U251 CNS it was 17.5 µM; in the test with EKVX NSCLC, 36.2 µM; with HCC-2998 colon, 18.2 µM. Further, the TGI stood at 15.8 µM with UACC-257 melanoma, 32.5 µM with CAKI-1 renal, 11.5 µM in the test with RPMI-8226 leukemia and 32 µM in the test on IGROV1 ovarian.

For `O=c1[nH]c2cc([N+](=O)[O-])ccc2nc1/C(=N/Nc1ccccc1)C(O)c1ccco1` (configuration not stated), the total growth inhibition concentration (TGI) in the test on RXF 393 renal, in the test on OVCAR-8 ovarian, with COLO 205 colon, in the test on U251 CNS, in the test on EKVX NSCLC and in the test on HCC-2998 colon was greater than 100 µM throughout. Also, the TGI in the test with UACC-257 melanoma, in the test on CAKI-1 renal, in the test with RPMI-8226 leukemia and in the test with IGROV1 ovarian was greater than 100 µM in each case.

For the molecule `C=CC(COC(=O)C(C)(C)OC(C)=O)c1ccc(OC(=O)C(C)C)c(OC)c1` (configuration not stated), the TGI is 19.7 µM in the test on RXF 393 renal; greater than 89.3 µM with OVCAR-8 ovarian; 7.05 µM in the test on COLO 205 colon; 25.8 µM in the test with U251 CNS; 34.1 µM with EKVX NSCLC; 10.5 µM in the test with HCC-2998 colon. Moreover, the TGI is 31.5 µM with UACC-257 melanoma, 4.07 µM in the test with CAKI-1 renal, greater than 100 µM with RPMI-8226 leukemia and 34.3 µM with IGROV1 ovarian.

As for `C=C1c2ccccc2C(=O)c2c1c1c(C(=O)OC)c(OC(=O)OCc3ccc([N+](=O)[O-])cc3)ccc1n2Cc1ccccc1`, the GI50 with RXF 393 renal was 3.1 µM; with OVCAR-8 ovarian, 2.51 µM; in the test with COLO 205 colon it was 32.4 µM; in the test with U251 CNS, 39.9 µM; with EKVX NSCLC it was 33.6 µM; with HCC-2998 colon it was 16.7 µM. In addition, the GI50 is 29.8 µM in the test with UACC-257 melanoma, 20.3 µM in the test with CAKI-1 renal, 2.3 µM in the test on RPMI-8226 leukemia and 14 µM with IGROV1 ovarian. For the same molecule, the concentration for total growth inhibition (TGI) with RXF 393 renal is greater than 100 µM; in the test on OVCAR-8 ovarian, greater than 100 µM; with COLO 205 colon, greater than 100 µM; in the test on U251 CNS it was greater than 100 µM; in the test with EKVX NSCLC, greater than 100 µM; with HCC-2998 colon, 39 µM. Besides, the concentration for total growth inhibition (TGI) in the test on UACC-257 melanoma is greater than 100 µM; in the test on CAKI-1 renal, 58.2 µM; in the test on RPMI-8226 leukemia, 13.1 µM; in the test on IGROV1 ovarian, 41.9 µM.
